The target of experiment [1] is T1, SIK2 (Homo sapiens, UniProt Q9H0K1). As to the kind of experiment: SIK2 Enzymatic Assay Version 1 (ADP Glo). Type of experiment: biochemical. The note with it: enzyme 0.6 nM, 160 μM ATP and 140 μM HDAC5tide (each 2× final concentration); 30 minutes pre-incubation, 4 hours; ADPGlo luminescence; read-out: SIK2 ADP Glo IC50 (μM) (Test Example 1). In short, it runs like this:
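Room-temperature ADP-Glo luminescence assay; SIK2 added at 0.6 nM (2× final) and preincubated with compound for 30 min. Reaction stopped with ADP-Glo Reagent for 40 min, then detection reagent for at least 30 min; no-peptide (ATP-only) wells served as negative control.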
In general terms: ADP-Glo first removes unused ATP, then detects ADP through luciferase.

Experiment [2] deals with T1, SIK2. In words: SIK2 Enzymatic Assay High Version 2 (High ATP). Type of experiment: biochemical. An outline of the steps:
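At room temperature, enzyme (6 nM, 2× final) was preincubated with compound for 30 min, then 6 mM ATP and 400 μM HDAC5tide (both 2× final) were added for 2 h. ADP formed was measured by ADP-Glo Max (2 h reagent, 1 h detection) using luminescence.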

T1 sequence (Q9H0K1 whole entry, species assumed): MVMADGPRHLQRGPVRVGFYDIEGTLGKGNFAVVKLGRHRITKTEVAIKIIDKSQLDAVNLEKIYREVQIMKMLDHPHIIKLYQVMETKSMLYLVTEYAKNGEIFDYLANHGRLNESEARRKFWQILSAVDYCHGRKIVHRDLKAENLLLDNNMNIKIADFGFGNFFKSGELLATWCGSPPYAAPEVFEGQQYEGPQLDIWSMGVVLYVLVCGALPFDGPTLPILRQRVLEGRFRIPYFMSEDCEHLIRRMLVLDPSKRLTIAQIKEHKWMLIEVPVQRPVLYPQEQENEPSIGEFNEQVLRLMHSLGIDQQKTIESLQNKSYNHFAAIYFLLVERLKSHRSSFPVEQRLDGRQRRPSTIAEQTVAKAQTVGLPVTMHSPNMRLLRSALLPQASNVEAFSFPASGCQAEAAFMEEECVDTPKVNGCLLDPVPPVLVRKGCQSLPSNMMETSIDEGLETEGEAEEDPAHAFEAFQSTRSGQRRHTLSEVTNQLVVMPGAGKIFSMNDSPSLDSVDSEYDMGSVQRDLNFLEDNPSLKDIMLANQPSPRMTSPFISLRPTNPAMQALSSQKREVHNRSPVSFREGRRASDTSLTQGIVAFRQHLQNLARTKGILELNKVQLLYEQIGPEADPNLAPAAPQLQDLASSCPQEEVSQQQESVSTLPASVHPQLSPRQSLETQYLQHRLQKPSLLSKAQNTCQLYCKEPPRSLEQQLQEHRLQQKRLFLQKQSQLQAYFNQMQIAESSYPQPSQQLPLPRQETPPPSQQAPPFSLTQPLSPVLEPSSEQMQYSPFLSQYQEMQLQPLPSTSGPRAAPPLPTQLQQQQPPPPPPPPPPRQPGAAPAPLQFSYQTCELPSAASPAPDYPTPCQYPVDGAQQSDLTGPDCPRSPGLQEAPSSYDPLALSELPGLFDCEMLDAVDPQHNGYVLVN

What is called IC50 is the midpoint of a concentration-inhibition curve. `N#Cc1cc(-c2ccn3nc(NC(=O)C4CC4)cc3c2)c(OCC(O)(C(F)(F)F)C(F)(F)F)cn1` [Example 99, N-[5-[2-cyano-5-[3,3,3-trifluoro-2-hydroxy-2-(trifluoromethyl)propoxy]-4-pyridyl]pyrazolo[1,5-a]pyridin-2-yl]cyclopropanecarboxamide]: the IC50 on SIK2 [1] amounted to 0.00295 µM; at SIK2 [2], 37.6 nM.
For `Cc1cc(-c2ccn3nc(NC(=O)C4CC4)cc3c2)c(O[C@H]2C[C@H]3CC[C@@H](C2)N3C)cn1` [Example 138, N-(5-(2-methyl-5-(((1R,3r,5S)-8-methyl-8-azabicyclo[3.2.1]octan-3-yl)oxy)pyridin-4-yl)pyrazolo[1,5-a]pyridin-2-yl)cyclopropanecarboxamide], the IC50 turned out to be 0.000854 µM on SIK2 [1] and 12.9 nM on SIK2 [2].
Regarding `CN1CC[C@@H](COc2cnc(C#N)cc2-c2ccn3nc(Nc4cccnc4)cc3c2)C1` [Example 4, (R)-5-((1-methylpyrrolidin-3-yl)methoxy)-4-(2-(pyridin-3-ylamino)pyrazolo[1,5-a]pyridin-5-yl)picolinonitrile], the values for the IC50 at SIK2 [1] and on SIK2 [2] were 0.0039 µM and 74 nM, respectively.
With `Cc1cc(-c2ccn3nc(NC(=O)C4CC4)cc3c2)c(O[C@H]2CC[C@H](O)CC2)cn1` [Example 158, trans-N-[5-[5-(4-hydroxycyclohexoxy)-2-methyl-4-pyridyl]pyrazolo[1,5-a]pyridin-2-yl]cyclopropanecarboxamide], the IC50 came to 0.00132 µM at SIK2 [1] and 18.3 nM against SIK2 [2].
For the molecule `CN1CC[C@@H](COc2cnccc2-c2ccn3nc(NC(=O)C4CC4)cc3c2)C1` [Example 489, N-[5-[3-[[(3R)-1-methylpyrrolidin-3-yl]methoxy]-4-pyridyl]pyrazolo[1,5-a]pyridin-2-yl]cyclopropanecarboxamide], the IC50 at SIK2 [1] worked out at 0.000791 µM; at SIK2 [2] it was 10.3 nM.
For `CN1CC[C@@H](COc2cnc(C#N)cc2-c2ccn3nc(Nc4ccncc4)cc3c2)C1` [Example 105, 5-[[(3R)-1-methylpyrrolidin-3-yl]methoxy]-4-[2-(4-pyridylamino)pyrazolo[1,5-a]pyridin-5-yl]pyridine-2-carbonitrile], in that order: 0.00951 µM and 203 nM.
`CC1(C)CC(Oc2cnc(C#N)cc2-c2ccn3nc(NC(=O)C4CC4)cc3c2)CC(C)(C)N1` [Example 93, N-[5-[2-cyano-5-[(2,2,6,6-tetramethyl-4-piperidyl)oxy]-4-pyridyl]pyrazolo[1,5-a]pyridin-2-yl]cyclopropanecarboxamide]: the IC50 turned out to be 0.0359 µM on SIK2 [1] and 1250 nM on SIK2 [2].
With `CN1[C@@H]2COC[C@H]1CC(Nc1cnc(C#N)cc1-c1ccn3nc(NC(=O)C4CC4)cc3c1)C2` (stereo partly drawn) [Example 565, N-[5-[2-cyano-5-[[(1R,5S)-9-methyl-3-oxa-9-azabicyclo[3.3.1]nonan-7-yl]amino]-4-pyridyl]pyrazolo[1,5-a]pyridin-2-yl]cyclopropanecarboxamide], the IC50 amounted to 0.00384 µM at SIK2 [1] and 88.2 nM on SIK2 [2].
On to `Cc1cc(-c2ccn3nc(NC(=O)C4CC4)cc3c2)c(O[C@H]2CC[C@H](O)C2)cn1` (stereo in doubt) [Example 183, trans-N-(5-(5-(((1*S,3*S)-3-hydroxycyclopentyl)oxy)-2-methylpyridin-4-yl)pyrazolo[1,5-a]pyridin-2-yl)cyclopropanecarboxamide], for which the results for the IC50 at SIK2 [1] and against SIK2 [2] were 0.00201 µM and 34.9 nM, respectively.
For `CNC1(COc2cnc(C)cc2-c2ccn3nc(NC(=O)C4CC4)cc3c2)CCC1` [Example 156, N-[5-[2-methyl-5-[[1-(methylamino)cyclobutyl]methoxy]-4-pyridyl]pyrazolo[1,5-a]pyridin-2-yl]cyclopropanecarboxamide] the same measures were 0.00369 µM and 78.8 nM.
Take `CN1CC[C@@H](COc2cnc(Cl)cc2-c2ccn3nc(NC(=O)C4CC4)cc3c2)C1` [Example 490, N-[5-[2-chloro-5-[[(3R)-1-methylpyrrolidin-3-yl]methoxy]-4-pyridyl]pyrazolo[1,5-a]pyridin-2-yl]cyclopropanecarboxamide]: the IC50 came to 0.0013 µM on SIK2 [1] and 17.9 nM on SIK2 [2].
Consider `Cc1cc(-c2ccn3nc(Nc4cccnc4)cc3c2)c(O[C@H]2CC[C@H](O)CC2)cn1` [Example 290, (1r,4r)-4-((6-methyl-4-(2-(pyridin-3-ylamino)pyrazolo[1,5-a]pyridin-5-yl)pyridin-3-yl)oxy)cyclohexan-1-ol], for which the IC50 came to 0.00439 µM at SIK2 [1] and 83.1 nM against SIK2 [2].
For `CN1CC[C@@H](COc2ccc(C#N)cc2-c2ccn3nc(NC(=O)C4CC4)cc3c2)C1` [Example 100, N-[5-[5-cyano-2-[[(3R)-1-methylpyrrolidin-3-yl]methoxy]phenyl]pyrazolo[1,5-a]pyridin-2-yl]cyclopropanecarboxamide] the same measures were 0.00573 µM and 105 nM.
As for `N#Cc1cc(-c2ccn3nc(NC(=O)C4CC4)cc3c2)c(OC[C@H]2C[C@@H](Nc3ccccn3)C2)cn1` [Example 176, cis-N-[5-[2-cyano-5-[[3-(2-pyridylamino)cyclobutyl]methoxy]-4-pyridyl]pyrazolo[1,5-a]pyridin-2-yl]cyclopropanecarboxamide], the figures for the IC50 at SIK2 [1] and against SIK2 [2] were 0.00196 µM and 55.5 nM, respectively.
In the case of `CN1CCC(Oc2cnc(C#N)cc2-c2ccn3nc(NC(=O)C4CC4)cc3c2)C1` (single isomer, unassigned) [Example 58, (*R)—N-(5-(2-cyano-5-((1-methylpyrrolidin-3-yl)oxy)pyridin-4-yl)pyrazolo[1,5-a]pyridin-2-yl)cyclopropanecarboxamide], the values for the IC50 on SIK2 [1] and on SIK2 [2] were 0.00431 µM and 99.9 nM, respectively.
For `O=C(Nc1cc2cc(-c3cc(OC(F)F)ncc3OC[C@@H]3CNCCO3)ccn2n1)C1CC1` [Example 503, N-[5-[2-(difluoromethoxy)-5-[[(2S)-morpholin-2-yl]methoxy]-4-pyridyl]pyrazolo[1,5-a]pyridin-2-yl]cyclopropanecarboxamide], the IC50 on SIK2 [1] is 0.0038 µM; against SIK2 [2], 68.2 nM.
For `Cc1cc(-c2ccn3nc(NC(=O)C4CC4)cc3c2)c(O[C@H]2C[C@H](N)C2)cn1` [Example 170, trans-N-[5-[5-(3-aminocyclobutoxy)-2-methyl-4-pyridyl]pyrazolo[1,5-a]pyridin-2-yl]cyclopropanecarboxamide], the IC50 at SIK2 [1] came to 0.000853 µM; on SIK2 [2], 12.9 nM.
Consider `C[C@@H](O)COc1cnc(C#N)cc1-c1ccn2nc(NC(=O)C3CC3)cc2c1` [Example 94, N-[5-[2-cyano-5-[(2R)-2-hydroxypropoxy]-4-pyridyl]pyrazolo[1,5-a]pyridin-2-yl]cyclopropanecarboxamide], for which the results for the IC50 at SIK2 [1] and against SIK2 [2] were 0.00847 µM and 167 nM, respectively.
For `Cc1cc(-c2ccn3nc(NC(=O)C4CC4)cc3c2)c(OCC2(N)CCC2)cn1` [Example 154, N-[5-[5-[(1-aminocyclobutyl)methoxy]-2-methyl-4-pyridyl]pyrazolo[1,5-a]pyridin-2-yl]cyclopropanecarboxamide], in that order: 0.00116 µM and 24 nM.
Regarding `N#Cc1ccc(OC[C@H]2CNCCO2)c(-c2ccn3nc(NC(=O)C4CC4)cc3c2)c1` [Example 101, N-[5-[5-cyano-2-[[(2R)-morpholin-2-yl]methoxy]phenyl]pyrazolo[1,5-a]pyridin-2-yl]cyclopropanecarboxamide], the IC50 at SIK2 [1] was found to be 0.00263 µM; on SIK2 [2], 21.9 nM.
For `CN1C[C@H]2C[C@@H]1C[C@H]2Oc1cnc(C#N)cc1-c1ccn2nc(NC(=O)C3CC3)cc2c1` [Example 13, N-[5-[2-cyano-5-[[(1R,4R,5R)-2-methyl-2-azabicyclo[2.2.1]heptan-5-yl]oxy]-4-pyridyl]pyrazolo[1,5-a]pyridin-2-yl]cyclopropanecarboxamide] the same measures were 0.0208 µM and 305 nM.
On to `N#Cc1cc(-c2ccn3nc(NC(=O)C4CC4)cc3c2)c(O[C@H]2CC[C@@H](O)CC2)cn1` [Example 86, N-(5-(2-cyano-5-(((1s,4s)-4-hydroxycyclohexyl)oxy)pyridin-4-yl)pyrazolo[1,5-a]pyridin-2-yl)cyclopropanecarboxamide], for which the IC50 on SIK2 [1] was 0.000204 µM; on SIK2 [2] it was 2.76 nM.
As for `Cc1cc(-c2ccn3nc(Nc4ccn(C)n4)cc3c2)c(OC[C@@H]2CNCCO2)cn1` [Example 129, 5-[2-methyl-5-[[(2S)-morpholin-2-yl]methoxy]-4-pyridyl]-N-(1-methylpyrazol-3-yl)pyrazolo[1,5-a]pyridin-2-amine], the IC50 on SIK2 [1] is 0.000657 µM; against SIK2 [2], 8.28 nM.
For `CN1CCC(COc2cnc(C#N)cc2-c2ccn3nc(NC(=O)C4CC4)cc3c2)CC1` [Example 51, N-[5-[2-cyano-5-[(1-methyl-4-piperidyl)methoxy]-4-pyridyl]pyrazolo[1,5-a]pyridin-2-yl]cyclopropanecarboxamide], in that order: 0.00509 µM and 116 nM.
On to `N#Cc1ccc(OC[C@@H]2CCNC2)c(-c2ccn3nc(NC(=O)C4CC4)cc3c2)c1` [Example 476, N-[5-[5-cyano-2-[[(3R)-pyrrolidin-3-yl]methoxy]phenyl]pyrazolo[1,5-a]pyridin-2-yl]cyclopropanecarboxamide], for which the IC50 on SIK2 [1] came out at 0.00386 µM; against SIK2 [2], 55.6 nM.
For `N#Cc1cc(-c2ccn3nc(NC(=O)C4CC4)cc3c2)c(O[C@@H]2CCNCC2(F)F)cn1` [Example 15, N-[5-[2-cyano-5-[[(4R)-3,3-difluoro-4-piperidyl]oxy]-4-pyridyl]pyrazolo[1,5-a]pyridin-2-yl]cyclopropanecarboxamide], in that order: 0.0027 µM and 39.9 nM.
